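Where inhibition never reached the appropriate level, the endpoint shown equals the highest concentration tested. Otherwise, values were interpolated linearly from a five-concentration, 48-hour dose response in 96-well plates. At the GI50, growth is halved. At the TGI there is no net growth.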
Assays:
Test in all cases: NCI tumour cell line growth inhibition, 48 h
HL-60(TB) leukemia = test system: HL-60(TB) leukemia
A549 NSCLC = test system: A549 NSCLC
MOLT-4 leukemia = test system: MOLT-4 leukemia
MCF7 breast = test system: MCF7 breast
SF-295 CNS = test system: SF-295 CNS
SNB-19 CNS = test system: SNB-19 CNS
HCC-2998 colon = test system: HCC-2998 colon
CCRF-CEM leukemia = test system: CCRF-CEM leukemia
IGROV1 ovarian = test system: IGROV1 ovarian
MDA-MB-435 = test system: MDA-MB-435
U251 CNS = test system: U251 CNS
OVCAR-4 ovarian = test system: OVCAR-4 ovarian
UO-31 renal = test system: UO-31 renal
786-0 renal = test system: 786-0 renal
DU-145 prostate = test system: DU-145 prostate
SW-620 colon = test system: SW-620 colon
M14 melanoma = test system: M14 melanoma
MALME-3M melanoma = test system: MALME-3M melanoma
A498 renal = test system: A498 renal
SF-539 CNS = test system: SF-539 CNS
SK-MEL-2 melanoma = test system: SK-MEL-2 melanoma
SNB-75 CNS = test system: SNB-75 CNS
NCI-H226 lung = test system: NCI-H226 lung
SK-OV-3 ovarian = test system: SK-OV-3 ovarian
RXF 393 renal = test system: RXF 393 renal
UACC-62 melanoma = test system: UACC-62 melanoma
SK-MEL-28 melanoma = test system: SK-MEL-28 melanoma
HT29 colon = test system: HT29 colon
KM12 colon = test system: KM12 colon
HOP-62 NSCLC = test system: HOP-62 NSCLC
EKVX NSCLC = test system: EKVX NSCLC
ACHN renal = test system: ACHN renal
HCT-15 colon = test system: HCT-15 colon
MDA-MB-231 breast = test system: MDA-MB-231 breast
OVCAR-3 ovarian = test system: OVCAR-3 ovarian
TK-10 renal = test system: TK-10 renal
CAKI-1 renal = test system: CAKI-1 renal
RPMI-8226 leukemia = test system: RPMI-8226 leukemia
NCI-H522 lung = test system: NCI-H522 lung
PC-3 prostate = test system: PC-3 prostate
UACC-257 melanoma = test system: UACC-257 melanoma
HOP-92 NSCLC = test system: HOP-92 NSCLC
SK-MEL-5 melanoma = test system: SK-MEL-5 melanoma
BT-549 breast = test system: BT-549 breast
K-562 leukemia = test system: K-562 leukemia
HCT-116 colon = test system: HCT-116 colon
NCI-H23 lung = test system: NCI-H23 lung
LOX IMVI melanoma = test system: LOX IMVI melanoma
COLO 205 colon = test system: COLO 205 colon
T-47D breast = test system: T-47D breast
HS 578T breast = test system: HS 578T breast
NCI/ADR-RES ovarian = test system: NCI/ADR-RES ovarian
OVCAR-5 ovarian = test system: OVCAR-5 ovarian
NCI-H460 lung = test system: NCI-H460 lung
OVCAR-8 ovarian = test system: OVCAR-8 ovarian
SN12C renal = test system: SN12C renal
SF-268 CNS = test system: SF-268 CNS

## CCCCCCCC/C=C/CCCCCCCC1=NC(C)(C)CN1CCO
HL-60(TB) leukemia
  GI50: 1.74 µM
  TGI: 3.81 µM
A549 NSCLC
  GI50: 1.91 µM
  TGI: 3.56 µM
MOLT-4 leukemia
  GI50: 1.44 µM
  TGI: 4.9 µM
MCF7 breast
  GI50: 1.7 µM
  TGI: 3.19 µM
SF-295 CNS
  GI50: 1.73 µM
  TGI: 3.36 µM
SNB-19 CNS
  GI50: 6.26 µM
  TGI: 21.5 µM
HCC-2998 colon
  GI50: 1.7 µM
  TGI: 3.1 µM
CCRF-CEM leukemia
  GI50: 2.22 µM
  TGI: 6.75 µM
IGROV1 ovarian
  GI50: 1.51 µM
  TGI: 2.9 µM
MDA-MB-435
  GI50: 1.73 µM
  TGI: 3.41 µM
U251 CNS
  GI50: 1.62 µM
  TGI: 2.97 µM
OVCAR-4 ovarian
  GI50: 2.8 µM
  TGI: 8.59 µM
UO-31 renal
  GI50: 2.18 µM
  TGI: 6.85 µM
786-0 renal
  GI50: 1.73 µM
  TGI: 3.14 µM
DU-145 prostate
  GI50: 1.72 µM
  TGI: 3.09 µM
SW-620 colon
  GI50: 1.73 µM
  TGI: 3.37 µM
M14 melanoma
  GI50: 1.74 µM
  TGI: 3.21 µM
MALME-3M melanoma
  GI50: 1.85 µM
  TGI: 3.88 µM
A498 renal
  GI50: 2.64 µM
  TGI: 16.8 µM
SF-539 CNS
  GI50: 1.68 µM
  TGI: 3.07 µM
SK-MEL-2 melanoma
  GI50: 1.86 µM
  TGI: 3.49 µM
SNB-75 CNS
  GI50: 1.83 µM
  TGI: 4.26 µM
NCI-H226 lung
  GI50: 12.6 µM
  TGI: 32.8 µM
SK-OV-3 ovarian
  GI50: 9.97 µM
  TGI: 24.2 µM
RXF 393 renal
  GI50: 2.02 µM
  TGI: 4.37 µM
UACC-62 melanoma
  GI50: 1.72 µM
  TGI: 3.42 µM
SK-MEL-28 melanoma
  GI50: 1.89 µM
  TGI: 3.39 µM
HT29 colon
  GI50: 1.51 µM
  TGI: 3.1 µM
KM12 colon
  GI50: 1.69 µM
  TGI: 3.06 µM
HOP-62 NSCLC
  GI50: 1.83 µM
  TGI: 3.29 µM
EKVX NSCLC
  GI50: 3.55 µM
  TGI: 12.8 µM
ACHN renal
  GI50: 2.28 µM
  TGI: 5.79 µM
HCT-15 colon
  GI50: 1.58 µM
  TGI: 3.16 µM
MDA-MB-231 breast
  GI50: 1.72 µM
  TGI: 3.69 µM
OVCAR-3 ovarian
  GI50: 4.52 µM
  TGI: 9 µM
TK-10 renal
  GI50: 1.91 µM
  TGI: 3.94 µM
CAKI-1 renal
  GI50: 1.56 µM
  TGI: 3.03 µM
RPMI-8226 leukemia
  GI50: 2.02 µM
  TGI: 4.31 µM
NCI-H522 lung
  GI50: 1.81 µM
  TGI: 3.58 µM
PC-3 prostate
  GI50: 2.19 µM
  TGI: 9.38 µM
UACC-257 melanoma
  GI50: 2 µM
  TGI: 3.81 µM
HOP-92 NSCLC
  GI50: 1.43 µM
  TGI: 7.45 µM
SK-MEL-5 melanoma
  GI50: 2.87 µM
  TGI: 8.4 µM
BT-549 breast
  GI50: 5.76 µM
  TGI: 19.6 µM
K-562 leukemia
  GI50: 1.3 µM
  TGI: 3.02 µM
HCT-116 colon
  GI50: 1.59 µM
  TGI: 2.99 µM
NCI-H23 lung
  GI50: 1.84 µM
  TGI: 3.7 µM
LOX IMVI melanoma
  GI50: 1.55 µM
  TGI: 2.95 µM
COLO 205 colon
  GI50: 1.66 µM
  TGI: 3.11 µM
T-47D breast
  GI50: 1.94 µM
  TGI: 4.34 µM
HS 578T breast
  GI50: 1.76 µM
  TGI: 3.98 µM
NCI/ADR-RES ovarian
  GI50: 3.87 µM
  TGI: 13.9 µM
OVCAR-5 ovarian
  GI50: 2.73 µM
  TGI: 7.98 µM
NCI-H460 lung
  GI50: 1.85 µM
  TGI: 3.42 µM
OVCAR-8 ovarian
  GI50: 2.29 µM
  TGI: 4.74 µM
SN12C renal
  GI50: 4.7 µM
  TGI: 18 µM
SF-268 CNS
  GI50: 1.46 µM
  TGI: 2.78 µM

Reference: PubChem BioAssay (NCI)
